Assay results published in publication PMC10176470, “Engaging a Non-catalytic Cysteine Residue Drives Potent and Selective Inhibition of Caspase-6” (Journal of the American Chemical Society, 2023).

Assays:
Type in all cases: cell-based
[1] = target: proteins of HEK293T cells transiently overexpressing caspase-6 (Homo sapiens, UniProt Q15185); conditions: exp_ref Probe; protein PTGES3 (Q15185); analysis C6
[2] = target: T1, proteins of HEK293T cells transiently overexpressing caspase-6 (Homo sapiens, UniProt Q9BQG0); conditions: protein MYBBP1A (Q9BQG0)
T1 sequence (Q9BQG0 1-1328): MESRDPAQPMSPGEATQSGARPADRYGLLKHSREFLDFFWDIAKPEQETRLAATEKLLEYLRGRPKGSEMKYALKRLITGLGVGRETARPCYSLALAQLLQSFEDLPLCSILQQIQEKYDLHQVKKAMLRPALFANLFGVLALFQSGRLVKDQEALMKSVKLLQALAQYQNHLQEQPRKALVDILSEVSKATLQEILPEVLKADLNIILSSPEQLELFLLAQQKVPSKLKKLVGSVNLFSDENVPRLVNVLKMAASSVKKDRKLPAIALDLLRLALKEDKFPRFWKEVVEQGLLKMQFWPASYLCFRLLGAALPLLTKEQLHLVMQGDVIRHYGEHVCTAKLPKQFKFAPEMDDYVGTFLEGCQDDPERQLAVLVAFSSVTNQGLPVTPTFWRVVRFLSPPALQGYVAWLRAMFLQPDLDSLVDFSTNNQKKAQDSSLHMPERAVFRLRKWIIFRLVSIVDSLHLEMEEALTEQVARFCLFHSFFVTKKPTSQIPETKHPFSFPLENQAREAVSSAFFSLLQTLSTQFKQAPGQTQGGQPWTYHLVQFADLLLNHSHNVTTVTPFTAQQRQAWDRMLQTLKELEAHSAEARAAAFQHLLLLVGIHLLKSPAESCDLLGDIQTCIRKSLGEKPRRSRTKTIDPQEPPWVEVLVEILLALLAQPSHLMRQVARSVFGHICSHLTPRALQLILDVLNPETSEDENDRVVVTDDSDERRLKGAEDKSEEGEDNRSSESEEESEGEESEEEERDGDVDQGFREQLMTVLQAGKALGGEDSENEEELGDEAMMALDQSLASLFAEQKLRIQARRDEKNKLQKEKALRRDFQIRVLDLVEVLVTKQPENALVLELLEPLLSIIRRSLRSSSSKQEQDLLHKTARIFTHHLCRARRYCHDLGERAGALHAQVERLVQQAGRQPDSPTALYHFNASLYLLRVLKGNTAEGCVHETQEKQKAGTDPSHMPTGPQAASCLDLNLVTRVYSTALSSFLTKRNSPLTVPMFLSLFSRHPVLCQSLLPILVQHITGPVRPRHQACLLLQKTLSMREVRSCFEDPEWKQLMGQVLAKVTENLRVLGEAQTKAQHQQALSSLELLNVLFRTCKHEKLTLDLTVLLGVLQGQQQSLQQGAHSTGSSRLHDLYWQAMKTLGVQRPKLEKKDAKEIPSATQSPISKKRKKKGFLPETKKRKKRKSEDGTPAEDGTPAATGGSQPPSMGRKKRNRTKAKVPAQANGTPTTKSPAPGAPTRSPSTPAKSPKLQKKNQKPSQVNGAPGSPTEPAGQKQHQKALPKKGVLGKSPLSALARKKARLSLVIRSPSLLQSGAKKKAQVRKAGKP

[3] = target: proteins of HEK293T cells transiently overexpressing caspase-6 (Homo sapiens, UniProt Q14980); conditions: exp_ref Probe; protein NUMA1 (Q14980); analysis C6
[4] = target: proteins of HEK293T cells transiently overexpressing caspase-6 (Homo sapiens, UniProt P62280); conditions: protein RPS11 (P62280), analysis C6
[5] = target: proteins of HEK293T cells transiently overexpressing caspase-6 (Homo sapiens, UniProt P09429); conditions: Probe; protein HMGB1 P09429
[6] = target: T2, proteins of HEK293T cells transiently overexpressing caspase-6 (Homo sapiens, UniProt P46977); conditions: protein STT3A (P46977)
T2 sequence (P46977 1-705): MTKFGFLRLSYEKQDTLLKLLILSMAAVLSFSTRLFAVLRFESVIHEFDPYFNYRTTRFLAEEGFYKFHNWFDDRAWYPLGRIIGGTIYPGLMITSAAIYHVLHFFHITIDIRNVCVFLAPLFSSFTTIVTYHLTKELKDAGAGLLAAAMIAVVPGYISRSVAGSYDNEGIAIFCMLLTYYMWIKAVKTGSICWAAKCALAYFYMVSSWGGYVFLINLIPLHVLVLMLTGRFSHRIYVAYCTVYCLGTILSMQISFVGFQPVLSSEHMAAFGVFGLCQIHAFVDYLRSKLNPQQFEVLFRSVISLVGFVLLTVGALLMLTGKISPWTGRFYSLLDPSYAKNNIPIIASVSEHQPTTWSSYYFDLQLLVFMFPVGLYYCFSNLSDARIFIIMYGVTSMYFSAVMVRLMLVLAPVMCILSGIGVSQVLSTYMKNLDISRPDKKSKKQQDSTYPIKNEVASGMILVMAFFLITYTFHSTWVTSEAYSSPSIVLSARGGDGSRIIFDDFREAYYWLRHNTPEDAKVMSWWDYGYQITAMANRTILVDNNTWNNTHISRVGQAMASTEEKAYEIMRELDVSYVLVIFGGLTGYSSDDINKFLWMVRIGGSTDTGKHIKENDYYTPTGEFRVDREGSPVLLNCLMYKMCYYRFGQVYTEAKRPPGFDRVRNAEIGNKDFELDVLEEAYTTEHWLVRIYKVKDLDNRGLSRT

[7] = target: proteins of HEK293T cells transiently overexpressing caspase-6 (Homo sapiens, UniProt P12268); conditions: exp_ref Probe; protein IMPDH2 (P12268); analysis C6
[8] = target: proteins of HEK293T cells transiently overexpressing caspase-6 (Homo sapiens, UniProt Q96AE4); conditions: Probe; protein FUBP1 Q96AE4
[9] = target: proteins of HEK293T cells transiently overexpressing caspase-6 (Homo sapiens, UniProt P08133); conditions: exp_ref Probe; protein ANXA6 (P08133); analysis C6
[10] = target: proteins of HEK293T cells transiently overexpressing caspase-6 (Homo sapiens, UniProt Q99798); conditions: exp_ref Probe; protein ACO2 (Q99798); analysis C6
proteins of HEK293T cells transiently overexpressing caspase-6 (Homo sapiens, UniProt Q99798), sequence (Q99798 28-780): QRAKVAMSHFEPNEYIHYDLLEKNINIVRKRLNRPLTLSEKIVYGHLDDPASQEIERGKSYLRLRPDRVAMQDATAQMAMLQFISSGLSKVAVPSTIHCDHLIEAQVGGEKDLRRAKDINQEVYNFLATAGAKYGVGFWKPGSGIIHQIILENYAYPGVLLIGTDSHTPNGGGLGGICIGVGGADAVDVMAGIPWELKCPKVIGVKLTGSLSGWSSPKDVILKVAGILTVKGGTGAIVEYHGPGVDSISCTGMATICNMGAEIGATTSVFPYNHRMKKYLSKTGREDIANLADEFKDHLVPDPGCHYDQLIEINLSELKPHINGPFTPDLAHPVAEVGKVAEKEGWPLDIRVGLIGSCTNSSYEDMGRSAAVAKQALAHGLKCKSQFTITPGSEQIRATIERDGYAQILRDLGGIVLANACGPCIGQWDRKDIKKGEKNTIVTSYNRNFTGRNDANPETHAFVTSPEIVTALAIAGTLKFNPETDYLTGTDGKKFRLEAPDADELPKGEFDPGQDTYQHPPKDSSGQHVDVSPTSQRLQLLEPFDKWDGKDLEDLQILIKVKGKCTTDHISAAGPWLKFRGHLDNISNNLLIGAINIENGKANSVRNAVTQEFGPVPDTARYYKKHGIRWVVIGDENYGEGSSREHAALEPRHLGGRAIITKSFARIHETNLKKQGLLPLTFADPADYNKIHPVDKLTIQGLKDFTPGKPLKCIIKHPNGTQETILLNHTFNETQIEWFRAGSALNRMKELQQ

proteins of HEK293T cells transiently overexpressing caspase-6 (Homo sapiens, UniProt Q14980), sequence (Q14980 whole entry): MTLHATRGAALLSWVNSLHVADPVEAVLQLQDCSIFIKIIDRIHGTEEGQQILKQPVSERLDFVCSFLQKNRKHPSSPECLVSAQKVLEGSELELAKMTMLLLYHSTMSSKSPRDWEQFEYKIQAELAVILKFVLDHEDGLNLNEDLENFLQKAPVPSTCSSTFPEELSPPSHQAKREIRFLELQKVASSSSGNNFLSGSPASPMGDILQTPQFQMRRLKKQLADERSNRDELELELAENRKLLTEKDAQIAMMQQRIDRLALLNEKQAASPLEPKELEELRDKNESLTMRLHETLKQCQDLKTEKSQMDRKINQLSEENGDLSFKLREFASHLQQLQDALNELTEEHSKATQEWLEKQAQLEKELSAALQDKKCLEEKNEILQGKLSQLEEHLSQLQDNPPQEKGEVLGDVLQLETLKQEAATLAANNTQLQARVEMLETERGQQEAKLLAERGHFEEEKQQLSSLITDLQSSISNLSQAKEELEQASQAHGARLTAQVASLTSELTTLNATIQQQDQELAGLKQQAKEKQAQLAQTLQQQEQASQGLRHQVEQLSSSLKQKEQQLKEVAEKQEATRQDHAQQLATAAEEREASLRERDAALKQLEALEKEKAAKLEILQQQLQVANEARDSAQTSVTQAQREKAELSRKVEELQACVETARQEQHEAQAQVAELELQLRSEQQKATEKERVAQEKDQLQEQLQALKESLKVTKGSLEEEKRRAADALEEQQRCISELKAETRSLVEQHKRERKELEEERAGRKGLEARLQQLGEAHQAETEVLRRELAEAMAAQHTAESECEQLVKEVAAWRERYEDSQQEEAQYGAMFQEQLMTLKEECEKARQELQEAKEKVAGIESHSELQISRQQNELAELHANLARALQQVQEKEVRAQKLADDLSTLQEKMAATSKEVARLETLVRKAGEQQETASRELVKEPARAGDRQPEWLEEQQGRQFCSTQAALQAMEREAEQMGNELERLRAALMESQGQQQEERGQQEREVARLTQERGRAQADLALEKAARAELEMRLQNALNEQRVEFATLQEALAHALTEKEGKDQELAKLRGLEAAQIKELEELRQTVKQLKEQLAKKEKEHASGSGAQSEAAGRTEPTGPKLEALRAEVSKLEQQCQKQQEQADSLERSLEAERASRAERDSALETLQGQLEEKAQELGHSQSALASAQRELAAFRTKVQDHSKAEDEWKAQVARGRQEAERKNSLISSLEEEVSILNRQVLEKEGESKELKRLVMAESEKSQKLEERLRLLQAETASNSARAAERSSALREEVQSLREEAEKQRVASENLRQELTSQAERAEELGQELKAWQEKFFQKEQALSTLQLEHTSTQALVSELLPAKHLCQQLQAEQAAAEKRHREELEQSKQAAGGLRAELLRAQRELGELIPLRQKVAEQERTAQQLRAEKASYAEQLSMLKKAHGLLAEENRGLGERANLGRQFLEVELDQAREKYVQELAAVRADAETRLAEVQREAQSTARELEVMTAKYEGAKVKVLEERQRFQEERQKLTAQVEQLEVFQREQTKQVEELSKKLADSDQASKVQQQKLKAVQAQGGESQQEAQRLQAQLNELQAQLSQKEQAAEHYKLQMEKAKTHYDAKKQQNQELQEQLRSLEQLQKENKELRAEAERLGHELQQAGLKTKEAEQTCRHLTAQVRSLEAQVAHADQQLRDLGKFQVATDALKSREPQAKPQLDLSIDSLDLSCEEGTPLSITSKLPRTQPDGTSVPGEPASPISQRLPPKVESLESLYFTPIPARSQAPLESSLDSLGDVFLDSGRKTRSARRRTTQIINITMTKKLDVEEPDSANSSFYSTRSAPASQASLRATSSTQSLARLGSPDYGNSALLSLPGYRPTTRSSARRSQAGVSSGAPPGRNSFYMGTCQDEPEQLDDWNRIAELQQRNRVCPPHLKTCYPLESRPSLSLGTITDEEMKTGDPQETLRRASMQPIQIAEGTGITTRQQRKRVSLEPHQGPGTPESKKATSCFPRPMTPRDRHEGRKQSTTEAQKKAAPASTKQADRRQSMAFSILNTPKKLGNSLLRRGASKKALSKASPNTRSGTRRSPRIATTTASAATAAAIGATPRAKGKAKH
proteins of HEK293T cells transiently overexpressing caspase-6 (Homo sapiens, UniProt P09429), sequence (P09429 whole entry): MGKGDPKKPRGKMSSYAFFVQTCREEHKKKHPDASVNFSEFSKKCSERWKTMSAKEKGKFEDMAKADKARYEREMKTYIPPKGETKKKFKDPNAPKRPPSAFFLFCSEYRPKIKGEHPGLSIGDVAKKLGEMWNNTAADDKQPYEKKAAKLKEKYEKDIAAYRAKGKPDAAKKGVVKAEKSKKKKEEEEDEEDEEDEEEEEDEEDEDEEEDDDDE
proteins of HEK293T cells transiently overexpressing caspase-6 (Homo sapiens, UniProt Q15185), sequence (Q15185 whole entry): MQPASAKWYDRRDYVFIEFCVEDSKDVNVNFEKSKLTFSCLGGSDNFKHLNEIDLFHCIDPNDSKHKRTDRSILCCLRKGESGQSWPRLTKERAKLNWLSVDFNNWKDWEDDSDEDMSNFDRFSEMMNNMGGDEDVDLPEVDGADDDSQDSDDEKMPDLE
proteins of HEK293T cells transiently overexpressing caspase-6 (Homo sapiens, UniProt Q96AE4), sequence (Q96AE4 whole entry): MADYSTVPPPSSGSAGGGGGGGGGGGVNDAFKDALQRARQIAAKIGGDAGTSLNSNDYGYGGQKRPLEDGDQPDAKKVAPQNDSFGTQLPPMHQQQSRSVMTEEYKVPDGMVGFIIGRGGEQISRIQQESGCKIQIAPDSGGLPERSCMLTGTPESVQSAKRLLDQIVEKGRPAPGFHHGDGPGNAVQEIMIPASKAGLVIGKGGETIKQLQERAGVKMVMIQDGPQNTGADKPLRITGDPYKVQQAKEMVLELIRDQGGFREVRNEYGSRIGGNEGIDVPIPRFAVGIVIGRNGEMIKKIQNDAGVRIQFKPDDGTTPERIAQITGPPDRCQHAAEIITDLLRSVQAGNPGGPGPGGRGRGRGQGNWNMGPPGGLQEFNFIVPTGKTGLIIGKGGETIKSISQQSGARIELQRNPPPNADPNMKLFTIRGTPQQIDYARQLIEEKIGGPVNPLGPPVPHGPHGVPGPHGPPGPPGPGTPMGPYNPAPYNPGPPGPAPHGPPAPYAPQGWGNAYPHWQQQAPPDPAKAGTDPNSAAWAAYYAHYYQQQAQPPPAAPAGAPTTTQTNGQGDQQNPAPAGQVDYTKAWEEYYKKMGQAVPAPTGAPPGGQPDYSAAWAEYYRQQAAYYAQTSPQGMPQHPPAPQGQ
proteins of HEK293T cells transiently overexpressing caspase-6 (Homo sapiens, UniProt P08133), sequence (P08133 whole entry): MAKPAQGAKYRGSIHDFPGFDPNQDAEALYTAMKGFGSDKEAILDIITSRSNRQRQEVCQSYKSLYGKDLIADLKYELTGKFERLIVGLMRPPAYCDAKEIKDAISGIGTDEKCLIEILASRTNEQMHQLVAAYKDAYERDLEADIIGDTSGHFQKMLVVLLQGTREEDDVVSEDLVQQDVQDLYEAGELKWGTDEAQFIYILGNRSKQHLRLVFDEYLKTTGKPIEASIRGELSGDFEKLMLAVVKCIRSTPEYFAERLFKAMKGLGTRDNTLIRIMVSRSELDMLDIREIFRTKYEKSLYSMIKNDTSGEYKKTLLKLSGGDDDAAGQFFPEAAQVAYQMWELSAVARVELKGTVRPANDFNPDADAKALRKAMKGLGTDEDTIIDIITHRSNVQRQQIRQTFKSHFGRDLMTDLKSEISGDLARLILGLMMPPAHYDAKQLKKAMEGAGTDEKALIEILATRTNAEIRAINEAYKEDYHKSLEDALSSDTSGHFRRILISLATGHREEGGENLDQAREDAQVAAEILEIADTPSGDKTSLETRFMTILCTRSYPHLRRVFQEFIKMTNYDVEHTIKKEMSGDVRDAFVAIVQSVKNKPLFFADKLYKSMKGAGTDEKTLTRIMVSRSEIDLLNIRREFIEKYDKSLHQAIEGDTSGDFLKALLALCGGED

Question: Which enrich.exp.med [1] does the source give for `C#CCOc1ccc([C@@H]2C[C@@H](C(=O)Nc3ccc(OC(F)(F)F)cc3)CN(S(=O)(=O)C=C)C2)cc1` (relative stereo) [13-t] here?
Answer: 1.128

Question: And the enrich.exp.med ([2]; exp_ref Probe, analysis C6)?
Answer: 1.154

Question: And the enrich.exp.med.lin [2]?
Answer: 2.225

Question: What about the enrich.exp.med.log2 [2] of the same molecule?
Answer: 1.154

Question: What about the enrich.exp.med [3] of the same molecule?
Answer: -0.2955

Question: What about the enrich.exp.med.lin ([4]; Expt Probe) of the same molecule?
Answer: 5.0581

Question: What about the enrich.exp.med.log2 ([4]; Expt Probe) of the same molecule?
Answer: 2.3386

Question: What about the enrich.exp.med ([4]; exp_ref Probe) of the same molecule?
Answer: 2.3386

Question: What about the enrich.exp.med [5] of the same molecule?
Answer: -1.399

Question: What about the enrich.exp.med.lin [6] of the same molecule?
Answer: 3.857

Question: And the enrich.exp.med.log2 [6]?
Answer: 1.948

Question: What about the enrich.exp.med ([6]; exp_ref Probe, analysis C6) of the same molecule?
Answer: 1.948

Question: And the enrich.exp.med [7]?
Answer: 0.7134

Question: What about the enrich.exp.med [8] of the same molecule?
Answer: -1.073

Question: And the enrich.exp.med [9]?
Answer: 0.01987

Question: And the enrich.exp.med [10]?
Answer: -0.3317
